Several values for one entry are separate records, joined by “and”; a condition that tells them apart may be missing. Equal entries are not always repeated.
System: 377384-186-R-J1-PDC complex spheroid viability
Test: Anticancer human tumor 377384-186-R-J1-PDC patient-derived pancreatic carcinoma cell line growth inhibition [RAS]
Settings: for viability, T/C: stronger effect = lower value
In short: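 Multi-cell-type spheroids: tumor cells plus HUVEC endothelial cells and mesenchymal stem cells. RAS-pathway inhibitors were combined with targeted agents, each dosed in half-log steps down from clinical Cmax, or from 10 microM when Cmax was unknown.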

[1] = curve of first compound, second compound 0.000949 µM
[2] = curve of first compound, second compound 0.003 µM
[3] = curve of first compound, second compound 0.00949 µM
[4] = curve of first compound, second compound 0.03 µM
[5] = curve of first compound, second compound 0.0949 µM
[6] = curve of first compound, second compound 0.3 µM
[7] = second compound 0.000949 µM, first compound 0.0316 µM
[8] = second compound 0.000949 µM, first compound 0.1 µM
[9] = second compound 0.000949 µM, first compound 0.316 µM
[10] = second compound 0.000949 µM, first compound 1 µM
[11] = second compound 0.003 µM, first compound 0.0316 µM
[12] = second compound 0.003 µM, first compound 0.1 µM
[13] = second compound 0.003 µM, first compound 0.316 µM
[14] = second compound 0.003 µM, first compound 1 µM
[15] = second compound 0.00949 µM, first compound 0.0316 µM
[16] = second compound 0.00949 µM, first compound 0.1 µM
[17] = second compound 0.00949 µM, first compound 0.316 µM
[18] = second compound 0.00949 µM, first compound 1 µM
[19] = second compound 0.03 µM, first compound 0.0316 µM
[20] = second compound 0.03 µM, first compound 0.1 µM
[21] = second compound 0.03 µM, first compound 0.316 µM
[22] = second compound 0.03 µM, first compound 1 µM
[23] = second compound 0.0949 µM, first compound 0.0316 µM
[24] = second compound 0.0949 µM, first compound 0.1 µM
[25] = second compound 0.0949 µM, first compound 0.316 µM
[26] = second compound 0.0949 µM, first compound 1 µM
[27] = second compound 0.3 µM, first compound 0.0316 µM
[28] = second compound 0.3 µM, first compound 0.1 µM
[29] = second compound 0.3 µM, first compound 0.316 µM
[30] = second compound 0.3 µM, first compound 1 µM
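Note: spheroids exposed to compounds for seven days before readout.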

Work on `C[C@@H](NC(=O)c1ncnc(N)c1Cl)c1ncc(C(=O)Nc2cc(C(F)(F)F)c(Cl)cn2)s1` + CCn1c(-c2cc(N3CCN(C)CC3)cnc2C(C)OC)c2c3cc(ccc31)-c1csc(n1)CC(NC(=O)C1CC1C)C(=O)N1CCCC(N1)C(=O)OCC(C)(C)C2 yielded an IC50 [1] of over 10000 nM, an IC50 [2] of under 31.6 nM and an IC50 [3] of under 31.6 nM. It also gave an IC50 [4] of under 31.6 nM, an IC50 [5] of under 31.6 nM and an IC50 [6] of under 31.6 nM. For the same compound, the viability, T/C [7] was 60.5%, the viability, T/C [8] was 68% and the viability, T/C [9] was 62.4%. For the same compound, the viability, T/C [10] was 69.9%, the viability, T/C (second compound 0.000949 µM, first compound 3.16 µM) was 65.2% and the viability, T/C (second compound 0.000949 µM, first compound 10 µM) was 49%. It also gave a viability, T/C [11] of 39.1%, a viability, T/C [12] of 36.5% and a viability, T/C [13] of 34.7%. It also gave a viability, T/C [14] of 40.3%, a viability, T/C (second compound 0.003 µM, first compound 3.16 µM) of 29.3% and a viability, T/C (second compound 0.003 µM, first compound 10 µM) of 19.9%. For the same compound, the viability, T/C [15] was 8.23%, the viability, T/C [16] was 12.1% and the viability, T/C [17] was 12.7%. It also gave a viability, T/C [18] of 11.6%, a viability, T/C (second compound 0.00949 µM, first compound 3.16 µM) of 14% and a viability, T/C (second compound 0.00949 µM, first compound 10 µM) of 11.2%. For the same compound, the viability, T/C [19] was 2.09%, the viability, T/C [20] was 2.73% and the viability, T/C [21] was 3.94%. The viability, T/C [22] was 4.72%, the viability, T/C (second compound 0.03 µM, first compound 3.16 µM) was 3.74% and the viability, T/C (second compound 0.03 µM, first compound 10 µM) was 2.97%. For the same compound, the viability, T/C [23] was 2.41%, the viability, T/C [24] was 2.22% and the viability, T/C [25] was 2.96%. It also gave a viability, T/C [26] of 3.02%, a viability, T/C (second compound 0.0949 µM, first compound 3.16 µM) of 2.41% and a viability, T/C (second compound 0.0949 µM, first compound 10 µM) of 1.87%. It also gave a viability, T/C [27] of 1.66%, a viability, T/C [28] of 2.36% and a viability, T/C [29] of 2.7%. The viability, T/C [30] was 2.88%, the viability, T/C (second compound 0.3 µM, first compound 3.16 µM) was 2.27% and the viability, T/C (second compound 0.3 µM, first compound 10 µM) was 2.12%.
`CC(Nc1ccc2c(c1)OCCn1cc(N3C(=O)OCC3C(F)F)nc1-2)C(N)=O` (centres undefined) + C=CC(=O)N1CCN(c2nc(OCC3CCCN3C)nc3c(F)c(-c4nc(N)cc(C)c4C(F)(F)F)c(Cl)cc23)C(C)C1 was tested, and the IC50 (curve of first compound, second compound 0.00316 µM) was 739 nM, the IC50 (curve of first compound, second compound 0.01 µM) was 575 nM and the IC50 (curve of first compound, second compound 0.0316 µM) was 443 nM. It also gave an IC50 (curve of first compound, second compound 0.1 µM) of 775 nM, an IC50 (curve of first compound, second compound 0.316 µM) of 255 nM and an IC50 (curve of first compound, second compound 1 µM) of 647 nM. For the same compound, the viability, T/C (second compound 0.00316 µM, first compound 0.0316 µM) was 73.4%, the viability, T/C (second compound 0.00316 µM, first compound 0.1 µM) was 72.2% and the viability, T/C (second compound 0.00316 µM, first compound 0.316 µM) was 52.8%. The viability, T/C (second compound 0.00316 µM, first compound 1 µM) was 48.1%, the viability, T/C (second compound 0.00316 µM, first compound 3.16 µM) was 38.4% and the viability, T/C (second compound 0.00316 µM, first compound 10 µM) was 28.4%. It also gave a viability, T/C (second compound 0.01 µM, first compound 0.0316 µM) of 76.8%, a viability, T/C (second compound 0.01 µM, first compound 0.1 µM) of 63.5% and a viability, T/C (second compound 0.01 µM, first compound 0.316 µM) of 54.8%. For the same compound, the viability, T/C (second compound 0.01 µM, first compound 1 µM) was 46.6%, the viability, T/C (second compound 0.01 µM, first compound 3.16 µM) was 37.9% and the viability, T/C (second compound 0.01 µM, first compound 10 µM) was 32.8%. The viability, T/C (second compound 0.0316 µM, first compound 0.0316 µM) was 86.2%, the viability, T/C (second compound 0.0316 µM, first compound 0.1 µM) was 68.2% and the viability, T/C (second compound 0.0316 µM, first compound 0.316 µM) was 55.7%. It also gave a viability, T/C (second compound 0.0316 µM, first compound 1 µM) of 40.3%, a viability, T/C (second compound 0.0316 µM, first compound 3.16 µM) of 34.2% and a viability, T/C (second compound 0.0316 µM, first compound 10 µM) of 32.1%. It also gave a viability, T/C (second compound 0.1 µM, first compound 0.0316 µM) of 78.9%, a viability, T/C (second compound 0.1 µM, first compound 0.1 µM) of 73.3% and a viability, T/C (second compound 0.1 µM, first compound 0.316 µM) of 60.5%. It also gave a viability, T/C (second compound 0.1 µM, first compound 1 µM) of 45%, a viability, T/C (second compound 0.1 µM, first compound 3.16 µM) of 40.1% and a viability, T/C (second compound 0.1 µM, first compound 10 µM) of 30.6%. The viability, T/C (second compound 0.316 µM, first compound 0.0316 µM) was 89.7%, the viability, T/C (second compound 0.316 µM, first compound 0.1 µM) was 63% and the viability, T/C (second compound 0.316 µM, first compound 0.316 µM) was 43.2%. For the same compound, the viability, T/C (second compound 0.316 µM, first compound 1 µM) was 44.8%, the viability, T/C (second compound 0.316 µM, first compound 3.16 µM) was 33.5% and the viability, T/C (second compound 0.316 µM, first compound 10 µM) was 32%. The viability, T/C (second compound 1 µM, first compound 0.0316 µM) was 79.2%, the viability, T/C (second compound 1 µM, first compound 0.1 µM) was 68.2% and the viability, T/C (second compound 1 µM, first compound 0.316 µM) was 53.5%. It also gave a viability, T/C (second compound 1 µM, first compound 1 µM) of 48.4%, a viability, T/C (second compound 1 µM, first compound 3.16 µM) of 38% and a viability, T/C (second compound 1 µM, first compound 10 µM) of 32.2%.
Work on `C=CC(=O)N1CCN(c2nc(OCC3CCCN3C)nc3c(F)c(-c4nc(N)cc(C)c4C(F)(F)F)c(Cl)cc23)C(C)C1` (centres undefined) + CCn1c(-c2cccnc2C(C)OC)c2c3cc(ccc31)N1CCOC(CC(NC(=O)C(C(C)C)N(C)C(=O)C3(F)CCN(C(=O)C#CC(C)(C)N(C)C)CC3)C(=O)N3CCCC(N3)C(=O)OCC(C)(C)C2)C1 yielded an IC50 [1] of over 1000 nM, an IC50 [2] of over 1000 nM and an IC50 [3] of over 1000 nM. For the same compound, the IC50 [4] was over 1000 nM, the IC50 [5] was over 1000 nM and the IC50 [6] was over 1000 nM. For the same compound, the viability, T/C (second compound 0.000949 µM, first compound 0.00316 µM) was 107%, the viability, T/C (second compound 0.000949 µM, first compound 0.01 µM) was 108% and the viability, T/C [7] was 117%. For the same compound, the viability, T/C [8] was 103%, the viability, T/C [9] was 110% and the viability, T/C [10] was 89.9%. It also gave a viability, T/C (second compound 0.003 µM, first compound 0.00316 µM) of 104%, a viability, T/C (second compound 0.003 µM, first compound 0.01 µM) of 96.4% and a viability, T/C [11] of 103%. It also gave a viability, T/C [12] of 114%, a viability, T/C [13] of 104% and a viability, T/C [14] of 93.3%. It also gave a viability, T/C (second compound 0.00949 µM, first compound 0.00316 µM) of 113%, a viability, T/C (second compound 0.00949 µM, first compound 0.01 µM) of 97.7% and a viability, T/C [15] of 120%. It also gave a viability, T/C [16] of 117%, a viability, T/C [17] of 104% and a viability, T/C [18] of 99.2%. It also gave a viability, T/C (second compound 0.03 µM, first compound 0.00316 µM) of 104%, a viability, T/C (second compound 0.03 µM, first compound 0.01 µM) of 96.7% and a viability, T/C [19] of 99.7%. It also gave a viability, T/C [20] of 92.5%, a viability, T/C [21] of 99% and a viability, T/C [22] of 106%. For the same compound, the viability, T/C (second compound 0.0949 µM, first compound 0.00316 µM) was 93.3%, the viability, T/C (second compound 0.0949 µM, first compound 0.01 µM) was 91.3% and the viability, T/C [23] was 94.8%. For the same compound, the viability, T/C [24] was 103%, the viability, T/C [25] was 101% and the viability, T/C [26] was 93.4%. For the same compound, the viability, T/C (second compound 0.3 µM, first compound 0.00316 µM) was 86.1%, the viability, T/C (second compound 0.3 µM, first compound 0.01 µM) was 86.3% and the viability, T/C [27] was 96.8%. The viability, T/C [28] was 88.1%, the viability, T/C [29] was 96% and the viability, T/C [30] was 94.8%.
In the case of `CCC(CC)c1cc(NC2CCC(N)C2)n2nccc2n1` (centres undefined), the viability, T/C (compound 0.0316 µM) is reported as 100% [middle of 4 runs], the viability, T/C (compound 0.1 µM) is reported as 105% [middle of 4 runs] and the viability, T/C (compound 0.316 µM) is reported as 105% [middle of 4 runs]. For the same compound, the viability, T/C (compound 3.16 µM) was 3.17% [middle of 4 runs], the viability, T/C (compound 10 µM) was 4.82% [middle of 4 runs] and the IC50 (curve of compound) was 1.68 µM [middle of 4 runs].
In the case of `C=CC(=O)N1CCN(c2nc(OCC3CCCN3C)nc3c(F)c(-c4nc(N)cc(C)c4C(F)(F)F)c(Cl)cc23)C(C)C1` (centres undefined), the viability, T/C (compound 0.00316 µM) is reported as 96.1% [middle of 12 runs], the viability, T/C (compound 0.0316 µM) is reported as 95.5% [middle of 12 runs] and the viability, T/C (compound 1 µM) is reported as 96.5% [middle of 12 runs]. The IC50 (compound alone, run of 09/09/2024) was over 1000 nM and the IC50 (curve of compound) was over 1000 nM.
`CC(=O)OC12COC1CC(O)C1(C)C(=O)C(O)C3=C(C)C(OC(=O)C(O)C(NC(=O)OC(C)(C)C)c4ccccc4)CC(O)(C(OC(=O)c4ccccc4)C21)C3(C)C` (centres undefined) was tested, and the viability, T/C (compound 0.0316 µM) was 9.48% [middle of 4 runs], the viability, T/C (compound 0.1 µM) was 12% and 10.2% (2×) and 9.32% and the viability, T/C (compound 0.316 µM) was 11.3% [middle of 4 runs]. The viability, T/C (compound 1 µM) was 12.8% [middle of 4 runs], the viability, T/C (compound 3.16 µM) was 14.2% [middle of 4 runs] and the viability, T/C (compound 10 µM) was 13.2% [middle of 4 runs]. It also gave an IC50 (curve of compound) of under 31.6 nM.
